# Test system: lumbar motoneurons
# Test: Naturally occurring lumbar motoneuron cell death in vivo
# Parameters: species or system chick
# Method: In the first model, embryos were treated with a single dose of an ICE inhibitor or control protease inhibitor on embryonic day 8 (E8), the time of maximum naturally occurring motoneuron cell death (Hamburger et al., J. Morph. 88:49-92 (1951)). Embryos treated in vivo with the peptide inhibitors appeared to develop normally and there were no gross abnormalties. […] 24 hours after treatment there is a similar reduction in the number of pyknotic cells and a significant increase in the number of healthy motoneurons (Table 6B). […] The ability of ICE inhibitors to block the naturally occurring cell death of interdigital cells in the developing limb was also studied. These cells undergo PCD as a means of sculpting the digits in many vertebrates. When embryos were treated with either ICE inhibitor on embryonic days, E6 and E7, there was a substantial reduction in the number of pyknotic cells between the digits of the hindlimb (FIG. 14).
# Peptides. Two peptide inhibitors of ICE, Acetyl-Tyr-Val-Ala-Asp-aldehyde (Ac-YVAD-CHO) and Acetyl-Tyr-Val-Ala-Asp-chloromethylketone (Ac-YVAD-CMK) and two control peptide inhibitors, Acetyl-Leu-Leu-Arg-aldehyde (Ac-LLR-CHO; Leupeptin) and n-tosyl-Lys-chloromethyl-ketone (Tos-Lys-CMK) were synthesized by Bachem Biosciences (King of Prussia, Pa.) and shown by thin layer chromatography and HPLC to be greater than 98% pure. […] Methods for administration of peptides to examine effects on naturally occurring motoneuron cell death in vivo. Although cell death of lumbar motoneurons occurs between E6 and E12, the peak period of death (i.e., the greatest number of pyknotic cells) occurs on E8 (Oppenheim et al., J Comp. Neurol. 177:87-112 (1978)). For these experiments, embryos were given a single administration of an agent on E8 0 hr and sacrificed 15 hours later. […] Ac-YVAD-CMK and Tos-Lys-CMK were administered in a solution of DMSO/BSA, whereas Ac-YVAD-CHO and leupeptin (Sigma) were in BSA alone. The solutions (50-100 μl) were dropped onto the highly vascularized chorioallantoic membrane through a window in the shell. The control groups included both DMSO and BSA or vehicle alone. Embryos were killed and staged by the Hamburger-Hamilton series (Hamburger and Hamilton, J. Morph. 88:49-92 (1951)). The thoraco-lumbar spinal cord was dissected, fixed in Camoys or Bouins fixative, processed for paraffin histology, serially sectioned (10-12 μm) and stained with either thionin or hematoxylin and eosin. Pyknotic motoneurons were identified based on criteria previously described (Chu-Wang and Oppenheim, J. Comp. Neurol. 177:33-58 (1978); Clarke and Oppenheim In Methods in Cell Biology Series; Cell Death; eds: Schwartz and Osborne. Academic Press. New York, N.Y. In press.) and were counted in every 10th or 20th section through the entire lumbar enlargement. The total number of pyknotic cells were then estimated by multiplying these values by 10 or 20. All cell counts were performed by individuals blinded with regard to drug treatment of the embryos. Methods for limb bud removal experiments. A unilateral limb bud removal was performed on E2 as described previously (Oppenheim et al., J. Comp. Neurol. 177:87-112 (1978)). Because induced cell death following limb removal begins on E5 (before that there is no difference in the number of motoneurons between the operated or unoperated sides) embryos were given one treatment of Ac-YVAD-CHO (40 μg) or BSA (control) at E5-0 hr and another at E5-12 hours (total peptide administered was 80 μg). Animals were killed at E6-0 hr. Methods were the same as described above except the section thickness was 6-8 μm (see Method for Administration of Peptides, above). Methods for limb bud interdigital regions. […]
# [1] = 24 hours post treatment, mean ±SD
substance,measurement,setting,value
Acetyl-Tyr-Val-Ala-Asp-aldehyde [Ac-YVAD-CHO],Pyknotic Lumbar Motoneurons on E8,"15 hours post treatment, single administration of 400 μg on E8, mean ±SD",146 ± 35
same,Healthy Motoneurons (lumbar) on E9,[1],"15,680 ± 684"
same,Pyknotic Motoneurons (lumbar) on E9,[1],150 ± 30
same,effectiveness for inhibition of motoneuron PCD in vivo,FIG. 13,dose dependent

# — US6939850B2, “Altered human interleukin-1β convertase (ICE), NEDD-2, and C. elegans ced-3 polypeptides and uses therefor” (Massachusetts Institute of Technology, priority 1992, dated 2005)
